Laboratory results taken from patent US20200247855A1, “THERAPY AND DIAGNOSTICS” (OXFORD UNIVERSITY INNOVATION LIMITED, priority 2017, published 2020).
No end group written: not given here.

Key:
Type in all cases: binding
[1] = target: T1, His-tagged P672-biotinylated CCL3 interaction (Homo sapiens, UniProt P10147); assay: AlphaScreen disruption of P672:chemokine interaction; details: AlphaScreen dose-response
T1 construct: host or cells: P672: HEK293F (in-house); biotinylated CCL3: not described
T1 sequence (P10147 24-92): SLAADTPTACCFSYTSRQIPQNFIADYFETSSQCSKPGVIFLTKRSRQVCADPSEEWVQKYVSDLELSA
Procedure: (§1) B-D. Effect of indicated peptides at a concentration of 100 μM on a His-tagged P672-biotinylated CCL8, CCL2 or CCL3 interaction respectively using an AlphaScreen assay. In each panel. […] Data are presented as mean±s.e.m. of three independent experiments, shown as individual data points.
(§2) Data are shown as mean of two technical replicates. Curves were fitted with 4 parameters to estimate IC50.
(§3) The binding of these peptides to CCL8 was assayed by examining their ability to disrupt the P672:CCL8 interaction using an AlphaScreen assay (FIG. 20E, H). […] BK1 derivatives were tested for their ability to inhibit P672 interactions with CCL2 and CCL3 using AlphaScreen (FIG. 20 F, G, I, J).
(§4) AlphaScreen® Histidine detection kit was purchased from PerkinElmer (6760619M lot: 2457886) and the assay was set up in white bottom Proxiplate™ 384 Plus microplates (PerkinElmer) following the manufacturer's instructions. The assay buffer used was 50 mM HEPES, 150 mM NaCl, 0.1% BSA, 0.01% Tween20, 1% DMSO, pH 7.5 and the final volume in each well was 20 μL. Briefly, biotinylated chemokine (recombinant, final concentration 1.25 nM (CCL8), 5 nM (CCL2) and 2.5 nM (CCL3)) was pre-incubated at room temperature for 15 min with different concentrations of each peptide. His-tagged P672 (final concentration 2.5 nM (CCL8), 5 nM (CCL2) and 1.25 nM (CCL3)) was then added to each well and the plate was incubated at room temperature for 30 min. Finally, acceptor and donor beads were added as a 1:1 suspension in buffer to each well and the plate was further incubated at RT for 1 h. Data was obtained by reading the plate using a Pherastar FSX plate reader (excitation 680 nm, emission 570 nm) and was analysed using GraphPad Prism.

[2] = target: T2, His-tagged P672-biotinylated CCL2 interaction (Homo sapiens, UniProt P13500); assay: as above
T2 construct: host or cells: P672: HEK293F (in-house); biotinylated CCL2: not described
T2 sequence (P13500 24-99): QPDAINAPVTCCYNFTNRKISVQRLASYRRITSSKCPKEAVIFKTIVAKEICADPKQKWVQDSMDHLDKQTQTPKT
Procedure: as §1, §2, §3, §4

[3] = target: T3, CCL18 (Homo sapiens, UniProt P55774); assay: Fluorescence polarisation (anisotropy) assay; details: fluorescence polarisation displacement assay
T3 construct: purchased Peprotech
T3 sequence (P55774 21-89): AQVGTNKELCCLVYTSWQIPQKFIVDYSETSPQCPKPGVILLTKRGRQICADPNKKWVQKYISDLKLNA
Procedure: (§5) FIG. 14(B). Fluorescence polarisation assay showing binding of chemokines to P672_PEP-FITC. The measured fluorescence anisotropy (y-axis) of P672_PEP-FITC (50 nM) following binding to a fixed dose (1 μM)) of CCL7, CCL8, CCL18 and CXCL1 (negative control). […] Statistical significance was determined using one-way ANOVA with Sidak's correction for multiple comparisons using Graph Pad Prism 6. **=p<0.005, ****=P<0.00005, ns=not significant.
(§6) FIG. 15(C). Displacement of P672_PEP-FITC from CCL18 by P672_PEP. In each case 100 μM (++) or […] (+) of P672_PEP was incubated with P672_PEP-FITC (50 nM)/chemokine (1 μM CCL7 and CCL18; 500 nM CCL8) and the resulting anisotropy measured. A peptide with the P672_PEP sequence scrambled ([…]) served as a negative control (P672_PEP_SCRAM; […]). Experiment carried out in triplicate where each data point is the average of one experiment carried out in technical triplicate. Mean with SEM shown and statistical significance was determined using one-way ANOVA with Sidak's correction for multiple comparisons using Graph Pad Prism 6. *=p<0.05, ***=p<0.0005, ****=P<0.00005, ns=not significant.
(§7) Fluorescence polarization assays were performed using a Clariostar (BMG Tech) plate reader with the supplied FITC excitation and emission filters using 96 half area well plates (Corning). The buffer used (FP assay buffer) was 50 mM HEPES, 150 mM NaCl, 0.1% BSA, 0.002% TWEEN-20, 0.2% DMSO, pH 7.4 and the final volume in each well was 30 μL. Polarization was converted to anisotropy using the equation A=(2*P)/(3−P) where P is polarization and A is anisotropy. For each peptide tested the gain was set to 35 mP and adjusted to a well containing fluorescent peptide only. The polarization of the emitted light in the FITC emission channel was then determined. Experiments were performed as two technical and three biological replicates. Screening of P672 peptide fragments was achieved through incubation of each peptide (50 nM) with 1 μM CCL8 (Peprotech) for 30 minutes in FP assay buffer and the resulting anisotropy of the emitted light determined as above. The chemokine cross binding screen was performed by incubating 1 μM chemokine (Peprotech) with 50 nM BK1.1FITC for half an hour in FP assay buffer and the resulting anisotropy of the emitted light determined as above. To monitor BK1.1FITC Ala mutants of binding to CCL8, 50 nM labelled peptide was incubated with varying concentrations of recombinant CCL8 (0-25 μM, final) in 30 μL FP assay buffer for 30 minutes and the resulting anisotropy of the emitted light determined as above. The anisotropy was plotted as a function of CCL8 concentration and fitted to the equation: Y=Bmax*X/(KD+X)+NS*X+Background, where Y is the measured anisotropy, X is the concentration of CCL8 added, Bmax is the maximum binding, KD is the equilibrium dissociation constant, NS is the slope of the nonlinear regression and Background is the anisotropy when no CCL8 is present, in Graph Pad Prism. Displacement assays were carried out with CCL7, CCL8, and CCL18 (Peprotech, 1 μM). […] For all FP assays, the experiments were carried out as two technical and three biological replicates.

[4] = target: T4, CCL7 (Homo sapiens, UniProt P80098); assay: Fluorescence polarisation (anisotropy) assay; details: fluorescence polarisation displacement assay
T4 construct: purchased Peprotech
T4 sequence (P80098 24-99): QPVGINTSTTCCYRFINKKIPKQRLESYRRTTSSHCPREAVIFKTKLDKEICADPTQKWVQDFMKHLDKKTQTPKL
Procedure: as §5, §6, §7

Substance: EDEDYEDFFKPVTAYF-NH2 [BK1.1]
- Inhibition of P672 interaction with CCL3 (BK1 derivatives) [1]: did not inhibit
- Inhibition of P672 interaction with CCL2 (BK1 derivatives) ([2]; AlphaScreen dose-response): did not inhibit
- Disruption of the P672-CCL2 interaction ([2]; AlphaScreen, peptide 100 μM): disrupted
- Displacement of FITC-labelled peptide from CCL18 by unlabelled peptide [3]: indicate its binding
- Displacement of FITC-labelled peptide from CCL18 by unlabelled peptide ([3]; listed as P672_PEP): able to displace labelled peptide bound to chemokine
- Displacement of FITC-labelled peptide from CCL7 by unlabelled peptide [4]: indicate its binding
- Displacement of FITC-labelled peptide from CCL7 by unlabelled peptide ([4]; listed as P672_PEP): able to displace labelled peptide bound to chemokine
